Columns and labels:
C57BL6J mice [1] = assay: Acute kidney ischemic reperfusion (IR) injury animal model; format: in vivo; conditions: 4 µg/kg and 8 µg/kg via tail vein; vs vehicle-treated IR group
Description: Vehicle and Compound 1 (4 µg/kg or 8 µg/kg) were administered to 8-week-old male C57BL6J mice via the tail vein 24 hours before, 1 hour before, and 12 hours after ischemic reperfusion (IR) surgery. The surgery was performed by blocking the artery leading to the kidney to induce ischemia for 37 minutes. The blocked artery was released, and 24 hours later, the mice were anesthetized and autopsied. Other part was used to synthesize cDNA, and a kidney damage marker, NGAL was identified by real-time PCR. And serum was separated from the blood, and creatinine, which is a kidney damage marker in the serum, was examined, and the results are shown in FIG. 3.

C57BL6J JmcSlc mice = assay: Inflammatory bowel disease animal model (DSS-induced colitis); format: in vivo
Description: Colitis was induced in 8-week-old male C57BL6J JmcSlc mice by feeding 3.5% dextran sodium sulfate (DSS) ad libitum for 9 days, and then replacing the same with normal drinking water. The vehicle and Compound 1 (0.5 mg/kg or 1 mg/kg) were orally administered to the experimental animal model prepared as described above daily from 2 days before DSS drinking until the end of drinking. In order to determine the degree of colonic inflammation, the degree of longitudinal contraction of the isolated colon was measured, and the histological scores were confirmed through H&E staining, which is shown in FIG. 6. Furthermore, total RNA was isolated from the isolated colon, cDNA was synthesized, and the expression levels of representative cytokines (IFNγ, IL-1β, IL-4, IL-6, IL-10, IL-12β, IL-17a, and TNFα) were measured and compared using qPCR, and the results are shown in FIG. 7.

mice = assay: Acute pancreatitis animal model (cerulein-induced); format: in vivo; conditions: 5 µg/kg or 10 µg/kg tail vein; dose-dependent
Description: Acute pancreatitis was induced by intraperitoneal administration of cerulein (50 µg/kg) dissolved in saline to 8-week-old male mice. Compound 1 was administered at a concentration of 5 µg/kg or 10 µg/kg into the tail vein 24 hours and 1 hour before cerulein administration, and cerulein was intraperitoneally administered six times at 1-hour intervals. 18 hours after the first cerulein administration, the mice were anesthetized, the serum was separated, and the amylase and lipase activities in the serum were measured, which are shown in FIG. 8.

C57BL6J mice [2] = assay: LPS-induced sepsis animal model, viability; format: in vivo; conditions: 15 mg/kg i.p. 30 min before 50 mg/kg LPS
Description: 50 mg/kg of lipopolysaccharide (LPS) administration dose corresponds to the 'half lethal dose' that causes death of one half of the population within 24 hours. […] The animal experiment was conducted with six 8-week-old male C57BL6J mice per group. Each mouse was intraperitoneally administered 15 mg/kg of Compound 1 or pretreated with 100 µL of 10% DMSO (vehicle control). 30 minutes later, 50 mg/kg lipopolysaccharide was intraperitoneally injected into each mouse, and the viability was examined for 80 hours, and the results are shown in FIG. 9 and Table 2.

PDHE1α S293 = assay: In vitro PDH S293 phosphorylation inhibition (Western blot) in HEK293 cells; format: cell-based, human; conditions: Homo sapiens, 5 hours
Summary of the method: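 HEK293 cells were switched to 0.5% FBS medium and treated with compounds at various concentrations for 5 h. Lysate protein (20 µg) was analysed by Western blot for phospho-PDHE1α S293 alongside total PDHE1α, with inhibition of S293 phosphorylation as the read-out.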

bladder cancer cells = assay: Growth inhibition (Cell Counting Kit-8), bladder cancer cells; format: cell-based; conditions: 24 hours, 0.5% FBS
Description: (§1) In order to verify the growth inhibitory effect of Compound 1 on various normal and cancer cell lines, 25 types of cell lines listed in Table 7 below were tested. In detail, each cell was seeded at a density of 2 × 10^4 cells/well in a 96-well plate and cultured for 24 hours, and then the medium was replaced with a medium comprising 0.5% (for cancer cells) or 10% (for normal cells) FBS, and Compound 1 was treated at various concentrations. 24 hours later, 10 µL of Cell Counting Kit-8 (Dojindo Molecular Technologies) was added, and 1 hour later, absorbance at 480 nm was measured using a microplate reader (TECAN SPARK), and the results are shown in FIGS. 15 to 21.

liver cancer cells = assay: Growth inhibition (Cell Counting Kit-8), liver cancer cells; format: cell-based; conditions: 24 hours, 0.5% FBS
Description: as §1

[3] = system: HCT-116 colorectal cancer cell line; assay: Anticancer efficacy in HCT-116 colorectal cancer tumor model; format: in vivo, nude mice; conditions: for reduced tumor growth (tumor volume) compared to vehicle: 21 times, day 24
Description: A colorectal cancer model was established by subcutaneously transplanting HCT-116 colorectal cancer cell line into nude mice. The colorectal cancer model was divided into the following three groups: Group 1 was administered a vehicle as a control group, Group 2 was administered 0.5 mg/kg of Compound 1, and Group 3 was administered 1.0 mg/kg of Compound 1. The drug was orally administered once a day for a total of 21 times. To evaluate the therapeutic efficacy, the tumor size was measured before drug administration and on days 3, 7, 10, 14, 17, 21, and 24 after drug administration. The tumor size was calculated as follows: Tumor size (mm^3) = (A×B^2)/2 [formula] wherein A and B represent the tumor long axis and short axis, respectively.
In addition, the body weight was measured before drug administration and on days 7, 14, and 21 after drug administration.

[4] = qPCR, vs vehicle administration group

## CC(C(=O)NNc1ccc(F)cc1)n1cc(-c2cc(F)cc3c2-c2ccccc2C3(O)C(F)(F)F)cn1 (stereo not drawn) [Example 1, 2-(4-(2-fluoro-9-hydroxy-9-(trifluoromethyl)-9H-fluoren-4-yl)-1H-pyrazol-1-yl)-N'-(4-fluorophenyl)propanehydrazide]
C57BL6J mice [1]
  RNA expression of NGAL (kidney): significantly reduced
  apoptosis of kidney tissue (TUNEL staining): significant reduction
  renal tubular tissue damage (H&E staining): significant reduction
  serum creatinine: significantly reduced
C57BL6J JmcSlc mice; 0.5 mg/kg and 1 mg/kg oral daily, vs vehicle, effect increased with dose
  longitudinal contraction of colon: alleviated
C57BL6J JmcSlc mice; 0.5 mg/kg oral daily, DSS
  colonic epithelial cell recovery (H&E staining): slight
C57BL6J JmcSlc mice; 1 mg/kg oral daily, DSS
  colonic epithelial cell recovery (H&E staining): remarkable epithelial cell recovery
  tissue score (histological score): lowest score
C57BL6J JmcSlc mice; [4]
  mRNA expression of IFNγ (colon): significantly reduced
  mRNA expression of IL-4 (colon): increased
  mRNA expression of IL-6 (colon): significantly reduced
  mRNA expression of IL-12b (colon): significantly reduced
  mRNA expression of IL-17a (colon): significantly reduced
  mRNA expression of TNFα (colon): significantly reduced
mice
  serum amylase activity: decreased
  serum lipase activity: decreased
C57BL6J mice [2]; Time 0 h
  Viability (%): 100%
C57BL6J mice [2]; Time 20 h
  Viability (%): 100%
C57BL6J mice [2]; Time 60 h
  Viability (%): 50%
C57BL6J mice [2]; Time 70 h
  Viability (%): 50%
C57BL6J mice [2]; Time 80 h
  Viability (%): 50%
PDHE1α S293
  inhibition at 1 µM: ≥ 80%
Bladder cancer cells
  concentration at which viability began to rapidly decrease to 70% or less: less than 1.2 µM
Liver cancer cells
  concentration at which viability began to rapidly decrease to 70% or less: 10 µM
[3]; 0.5 mg/kg and 1.0 mg/kg oral, days 7, 14, 21
  body weight change: no significant body weight change
[3]; 0.5 mg/kg oral once a day
  reduced tumor growth (tumor volume) compared to vehicle: 41%
[3]; 1.0 mg/kg oral once a day
  reduced tumor growth (tumor volume) compared to vehicle: 49%

— EP4596537A1, “NOVEL FLUORENE DERIVATIVE COMPOUND AND USE THEREOF” (JD Bioscience Inc., priority 2022, dated 2024)
